Converted amounts (≈) assume the structure as drawn.
Tests used:
[1] = Monomer solubility in water (GC/MS of water phase); format: physicochemical; settings: @ 25° C., monomer equilibrated with deionized water 24 hours; for solubility at 24 h: thermodynamic from solid
Method: Monomer Solubility in Water
Solubility of the monomers in water is determined by combining 5 g of monomer and 5 g of deionized water in a sealed 20 ml vial for 30 min, after which the sample is allowed to sit at room temperature for 24 hours to establish equilibrium and phase separation of monomer from water. The water phase was then removed and analyzed to determine the monomer concentration GC/MS (7890B GC with a 5977A MSD Mass Spectrophotometer), both from Agilent. Inlet temperature at 270 C. Ramp starting at 100° C. to 320° C. at 10 degrees per min. The mass spec was scanning from a molecular weight of 30-500. The GC column was a Agilent DB-SMS 30M×0.250 mm.

[2] = temperature at which initiator has 10 hour half-life; cited from earlier work

Molecule	Solubility in water [1]	10 hour ½ life temperature [2]	also measured
C=C(C)C(=O)OCCOC(=O)C(=C)C [SR206, Ethylene glycol dimethacrylate]	–	–	solubility at 24 h [1]: 2400 µg/mL (≈ 12.1 mM)
C=CC(=O)OCC(C)(C)COC(=O)C=C [SR247, Neopentyl glycol diacrylate]	–	–	solubility at 24 h [1]: 940 µg/mL (≈ 4.43 mM)
C=CC(=O)OCCOCCOCC [SR256, 2-(2-ethoxyethoxy) ethyl acrylate]	25330 µg/mL (≈ 135 mM)	–	–
C=CC(=O)OCC(COC(=O)C=C)(COC(=O)C=C)COC(=O)C=C [SR295, PENTAERYTHRITOL TETRAACRYLATE]	–	–	solubility at 24 h [1]: 4230 µg/mL (≈ 12 mM)
CC(C)(N=NC(C)(C)C(=N)N)C(=N)N.Cl [Sample V-50, 2,2′-azobis(2-amidinopropane) hydrochloride]	–	10 hour ½ life at 56 °C	–
CC(C)(N=NC(C)(C)C(=O)NCCO)C(=O)NCCO [VA-086, 2,2′-Azobis[2-methyl-N-(2-hydroxyethyl)propionamide]]	–	10 hour ½ life at 86 °C	–
CCC(C)(C#N)N=NC(C)(C#N)CC (centres unmarked) [Vazo-67, 2,2′-azobis(2-methylbutyronitrile)]	–	10 hour ½ life at 67 °C	–
N#CC1(N=NC2(C#N)CCCCC2)CCCCC1 [Vazo-88, 1,1′-Azobis(cyclohexanecarbonitrile)]	–	10 hour ½ life at 88 °C	–
Polyethylene glycol 200 diacrylate [SR259]	40680 µg/mL	–	–
Polyethylene glycol 400 diacrylate [SR344]	soluble	–	–
polyethylene glycol (600) diacrylate [SR610]	soluble	–	–
